Reference: PMC12040169 (PLOS Biology, 2025)

Experiment: in vitro
Details: human, hela cells

SMILES | viability at 28.5 h, 10 µM
O=C(O)c1n[s+][n-]c1-c1cc([N+](=O)[O-])cc([N+](=O)[O-])c1O [CBK261584] | 97.2%

Same assay, conditions: human, hela cells, % viability

SMILES | viability at 28.5 h, 10 µM
CC(C)(C)c1cc(CCC(=O)N/N=C/c2ccco2)cc(C(C)(C)C)c1O [CBK261960] | 110%
COc1cccc(OC)c1OCCN1CCNCC1 [CBK265089G] | 90.7%
Oc1ccc2ccccc2c1Cc1c(O)ccc2ccccc12 [CBK263583] | 72.9%
COc1ccc([N+](=O)[O-])cc1NC(=O)CSc1nnnn1C [CBK268950] | 93%
CC(=O)NCC1CC(N2CCSCC2)=NO1 (stereo not drawn) [CBK010367] | 85%
CCn1ncc(CN2CCN(C(=O)c3nn(C)cc3C(=O)O)CC2)c1C [CBK286870] | 89.3%
C=Cn1ncc(CN(CCCn2ccnc2)CC2CC=CCC2)c1C (stereo not drawn) [CBK283219] | 96.8%
CC(C)(C)c1ccc(CN2CCN(C(=O)c3ccc(-c4ccc(S(C)(=O)=O)cc4)cn3)CC2)cc1 [CBK160487] | 96.1%
OCCN1CCN(CC(O)COCC2COc3ccccc3O2)CC1 (stereo not drawn) [CBK027374C] | 97.3%
CCOC(=O)Cc1ccc(Nc2cc(-c3ccc(N(C)C)cc3)ncn2)cc1 [CBK090712] | 31.6%
N#Cc1ccc(NC(=O)NCCc2cccs2)cc1 [CBK043736] | 115%
Cc1cc(C)nc(N2CCCC(O)(c3nc(C)c(CCOc4ccccc4)s3)CC2)n1 (stereo not drawn) [CBK285924] | 111%
O=C(Nc1ccccc1Cl)N1CCN(c2ccc(F)cc2)CC1 [CBK117849] | 95.7%
CC(C)c1ccc(S(=O)(=O)Nc2cc(F)c(F)c(F)c2)cc1 [CBK045028] | 104%
O=C(C[S+]([O-])c1ccc(C(F)(F)F)cc1[N+](=O)[O-])Oc1cccc2cccnc12 (stereo not drawn) [CBK266716] | 91.6%
CCC(CNC(=O)c1cccc(C)n1)N1CCCC1 (stereo not drawn) [CBK304803] | 116%
O=C(Nc1ccc(O)cc1)c1ccc(N2C(=O)c3cccc([N+](=O)[O-])c3C2=O)cc1 [CBK262600] | 89.8%
c1ccn(CCOc2nccnc2-c2ccsc2)c1 [CBK106772] | 94.4%
O=C1/C(=N\O)c2ccccc2N1Cc1ccccc1 [CBK288484] | 99.7%
O=C(CC1SC(NC2CCCCC2)=NC1=O)Nc1cc(Cl)ccc1Cl (stereo not drawn) [CBK059501] | 91%
CC1CN(CCC(=O)O)Cc2cc(Cl)ccc2O1 (stereo not drawn) [CBK286899] | 103%

SMILES | viability at 28.5 h, 10 µM
COc1ccc(-c2oc3ccccc3c(=O)c2OCC(=O)O)cc1 [CBK269232] | 98.7%
O=C(O)c1cc(-c2cccnc2)nc2ccc(Br)cc12 [CBK263674] | 105%
Cc1noc2nc(C3CCCN(C(=O)C4CC4)C3)cc(C(F)F)c12 (stereo not drawn) [CBK284608] | 85.8%
CCNC(=O)N1CC2(CCN(Cc3cc(OC)c(OC)c(OC)c3)CC2)c2ccccc21 [CBK126689] | 96.5%
Cc1cc2c(cc3c(=O)n(CC(=O)OC(C)C)nc(C)n32)s1 [CBK284071] | 98.6%
C[C@H](c1ccccc1)n1c(=O)[nH]c2ncc(-c3cccc4ccccc34)nc21 [CBK064241] | 101%
Cc1cc(C)c2nc(-c3ccccn3)cc(C(=O)NCc3cccs3)c2c1 [CBK267772] | 86.1%
Cc1ccc2c(c1C)NC(=O)CC2c1ccc(F)cc1 (stereo not drawn) [CBK288221] | 101%
COc1ccc(Cl)cc1S(=O)(=O)N1CCC(C(=O)NCCO)CC1 [CBK270002] | 84%
COc1ccc(Sc2nccnc2NC(C)C)cc1OC [CBK115249] | 87.4%
Cc1cccc(-n2c(SCC(=O)Nc3ccc(Br)cc3F)nnc2-c2ccccc2)c1 [CBK265903] | 98.9%
CCOC(=O)c1c(NC(=O)c2nn3c(C(F)(F)F)cc(-c4cccs4)nc3c2Cl)sc2c1CCCC2 [CBK262539] | 95.1%
CNC(=O)C1CCN(S(=O)(=O)c2ccc(C(C)(C)C)cc2)CC1 [CBK051544] | 90.3%
CC(C)(O)C#Cc1ccc(C(=O)N2CCN(Cc3ccccc3)CC2)cc1 [CBK263100] | 80.3%
O=C1NC(=S)S/C1=C\c1cn(-c2ccccc2)nc1-c1ccc(OCc2ccccc2)cc1 [CBK265496] | 79.4%
O=C(Nc1ccccc1F)c1cc(Cl)sc1Cl [CBK085969] | 93.3%
Cc1nn(-c2ccccn2)c(C)c1[C@@H]1C=C[C@@H](NC(=O)CCC(=O)O)C1 [CBK289170] | 81.9%
Cc1cccc(NC(=O)c2ccccc2NS(=O)(=O)c2ccc(F)c(F)c2)c1 [CBK113810] | 115%
O=S(=O)(N1CCCCCC1)N1CCNCC1 [CBK269219C] | 96.5%
CCn1cc(C(=O)NC2(c3cccc(OC)c3)CCCC2)cn1 [CBK283750] | 101%
CC(=O)NS(=O)(=O)c1ccc(Nc2ccc([N+](=O)[O-])c3nonc23)cc1 [CBK261443] | 89.7%

SMILES | viability at 28.5 h, 10 µM
O=C1C=C(N2CCC(CCC3CCN(C4=CC(=O)CCC4)CC3)CC2)CCC1 [CBK007126] | 105%
OC1(c2cccnc2)CCCC2CN(Cc3c(F)cccc3F)CC21 (stereo not drawn) [CBK284512] | 114%
CN1C(=O)COc2ccccc2CCCC[C@@H]2[C@H]1CCCN2CC(N)=O [CBK292098] | 105%
OC1(c2cccnc2F)CCN(Cc2c(F)cccc2Cl)CC1 [CBK283148] | 106%
O=C(c1[nH]nc(O)c1Cc1c(Cl)cccc1Cl)N1CCOCC1 [CBK107228] | 101%
Cc1nc(C2CCN(C(=O)c3ccncc3)CC2)c2sccn12 [CBK282235] | 99.9%
COc1cccc(N2CCN(CCCOc3ccc(F)cc3)CC2)n1 [CBK010355F] | 94.6%
CC(NC(=O)C1CCN(CCc2ccccc2)CC1)c1ccccc1 (stereo not drawn) [CBK148612] | 99.6%
O=C(Nc1ccccc1)c1cccc(S(=O)(=O)NCc2cccs2)c1 [CBK058153] | 87.1%
O=C(O)CCc1nn2c3ccccc3n(CCN3CCCCC3)c2nc1=O [CBK267519] | 97.5%
COC(=O)NC(=O)N1CCN(c2c(Cl)cncc2Cl)CC1 [CBK043398] | 108%
Cc1c(C(=O)O)sc2nc3c(Cl)cc(C(=O)c4ccccc4O)cn3c(=O)c12 [CBK295619] | 98.5%
CSc1nnc(Cc2nnc(SC)n2-c2ccccc2)n1-c1ccccc1 [CBK267145] | 105%
O=S(=O)(NCC(O)Cn1c2ccc(Cl)cc2c2cc(Cl)ccc21)c1ccccc1 (stereo not drawn) [CBK262542] | 88.6%
COc1ccccc1NS(=O)(=O)c1ccc(C)c(C(=O)NCC(c2ccco2)N2CCCCC2)c1 (stereo not drawn) [CBK296669] | 81.3%
CCn1ncc(CN2CCC(O)(c3ccc(C)cc3)CC2)c1C [CBK282956] | 90.2%
COc1ccc(CN2CCC(N3CCCCCC3)CC2)cc1OC [CBK264721G] | 90.8%
O=S(=O)(Nc1cc(OC2CCNCC2)c2occc2c1)c1c(Cl)cccc1Cl [CBK074989C] | 64.3%
CCOC(=O)C1=C(C)N(c2ccc(C(=O)O)cc2)C(=O)NC1c1ccc(OC(F)F)c(OC)c1 (stereo not drawn) [CBK297878] | 90.1%

Same assay, conditions: human, hela cells, % viability, bulk resorufin, single well

SMILES | viability at 28.5 h, 10 µM
O=C(O)c1cc(N2C(=O)c3cccc4c([N+](=O)[O-])ccc(c34)C2=O)cc(N2C(=O)c3cccc4c([N+](=O)[O-])ccc(c34)C2=O)c1 [CBK262119] | 91.8%
